# Laboratory results reported in patent EP0087858A1, “New chromanone compounds and pharmaceutical compositions containing them” (priority 1982, dated 1983).
# Columns and labels:
# dd mice = assay: Analgesic effects by a modified Haffner method; type: in vivo; conditions: 2 mg/kg morphine hydrochloride s.c. 30 minutes later, tail squeeze
# Protocol: Groups of 10 dd mice were orally administered the examined drugs and 30 minutes later 2 mg/kg of morphine hydrochloride, the threshold dose, was injected subcutaneously. At 15, 30, 45 and 60 minutes thereafter, the root of mouse's tail was squeezed with a Kocher's forceps.
# Acute toxicity = conditions: mouse, in vivo, male dd mice, deaths up to 72 hours
# Protocol: Groups of 10 male dd mice weighing some 18 g were orally or intraperitoneally administered the examined drugs and the number of death up to 72 hours later was recorded.
# An example of results is shown in Table 1: the drugs are those numbered correspondingly above. Administration is oral (p.o.) or intraperitoneal (i.p.)
# [1] = system: stomach and intestinal tracts; design: species or system rats; conditions: rat, in vivo, po
# [2] = system: plantaroedema induced by carrageenin; assay: Inhibition of plantaroedema induced by carrageenin; type: in vivo; conditions: rats, 60 minutes before 0.1 ml of 1% carrageenin into the sole
# Protocol: 60 minutes after the drugs had been orally administered to groups of rats, 0.1 ml of 1% carrageenin solution was injected subcutaneously into the sole. The rate of increase in volume of the hind food compared with volume before carrageenin treatment was regarded as oedema rate.
# male dd mice = assay: Analgesic effects by acetic acid writhing test; type: in vivo; conditions: inhibition rate of stretching after 0.6% acetic acid i.p.
# Protocol: 30 minutes after the examined drugs were given orally, 0.1 ml/10 g of 0.6% acetic acid solution was intraperitoneally administered to groups of 10 male dd mice weighing some 18 g. The number of stretching was calculated during an observation period of 15 to 20 minutes after acetic acid treatment. The average inhibition rate of stretching among 8 animals was regarded as the inhibition rate of the drug, excluding 2 animals showing maximum and minimum number of stretching.
# [3] = system: gastric irritation/ulceration; assay: Gastric irritation; type: in vivo; conditions: rats, 8 hours after dosing, aspirin (150 mg/kg) or indomethacin (40 mg/kg) taken as 100%
# Protocol: 8 hours after the examined drugs were orally administered to groups of rats, degree of gastric irritation/ulceration produced by the drug is compared with that produced by aspirin (150 mg/kg) or indomethacin (40 mg/kg). Percentage rate of production of gastric irritation, compared with the control drug, (that produced by aspirin or indomethacin was taken as 100%), was regarded as the gastric irritation rate.
compound,measurement,setting,value
"CC(C(=O)O)c1cc(Cl)c2c(c1)C(=O)CCO2 (stereo not drawn) [Compound 5, 2-(8-chloro-4-chromanon-6-yl)propionic acid]",analgesic effect (%),dd mice; 50 mg/kg orally,20%
same,analgesic effect (%),dd mice; 100 mg/kg orally,45%
same,mortality at 72 h,"Acute toxicity; po, 400 mg/kg p.o.",0%
same,mortality at 72 h,"Acute toxicity; po, 800 mg/kg p.o.",0%
"CCCCC1C(=O)N(c2ccccc2)N(c2ccccc2)C1=O [Phenylbutazone, reference compound]",findings in sections of the stomach and intestinal tracts,[1],mucosal disorder or ulcer formation
same,oedema rate (%),[2]; 50 mg/kg orally,33%
same,oedema rate (%),[2]; 100 mg/kg orally,50%
same,mortality at 72 h,"Acute toxicity; po, 400 mg/kg p.o.",30%
"CC1(C)CC(=O)c2cc(CC(=O)O)ccc2O1 [Compound 2, (2,2-dimethyl-4-chromanon-6-yl) acetic acid]",analgesic effect (%),male dd mice; 50 mg/kg orally,13%
same,analgesic effect (%),male dd mice; 100 mg/kg orally,62%
same,oedema rate (%),[2]; 100 mg/kg orally,46%
same,mortality at 72 h,"Acute toxicity; po, 600 mg/kg p.o.",0%
"CC(C(=O)O)c1cc(Cl)c2c(c1)C(=O)CC(C)(C)O2 (stereo not drawn) [Compound 3, 2-(8-chloro-2,2-dimethyl-4-chromanon-6-yl)propionic acid]",analgesic effect (%),dd mice; 50 mg/kg orally,20%
same,analgesic effect (%),dd mice; 100 mg/kg orally,25%
same,analgesic effect (%),male dd mice; 50 mg/kg orally,27%
same,analgesic effect (%),male dd mice; 100 mg/kg orally,59%
same,oedema rate (%),[2]; 100 mg/kg orally,48%
same,mortality at 72 h,"Acute toxicity; po, 400 mg/kg p.o.",0%
"Cc1c(N(C)C)c(=O)n(-c2ccccc2)n1C [Aminopyrine, reference compound]",analgesic effect (%),dd mice; 50 mg/kg orally,20%
same,analgesic effect (%),dd mice; 100 mg/kg orally,35%
same,analgesic effect (%),male dd mice; 50 mg/kg orally,17%
same,analgesic effect (%),male dd mice; 100 mg/kg orally,57%
same,mortality at 72 h,"Acute toxicity; po, 600 mg/kg p.o.",20%
"CC(C(=O)O)c1ccc2c(c1)C(=O)C(C)(C)O2 (stereo not drawn) [Compound 6, 2-(2,2-dimethyl-2,3-dihydrobenzofuran-3-one-5-yl)propionic acid]",analgesic effect (%),dd mice; 50 mg/kg orally,20%
same,analgesic effect (%),dd mice; 100 mg/kg orally,40%
same,gastric irritation rate(%),[3]; 100 mg/kg orally,25%
same,oedema rate (%),[2]; 50 mg/kg orally,34%
same,oedema rate (%),[2]; 100 mg/kg orally,53%
same,mortality at 72 h,"Acute toxicity; ip, 200 mg/kg i.p.",0%
same,mortality at 72 h,"Acute toxicity; po, 300 mg/kg p.o.",0%
"CC(C)Cc1ccc(C(C)C(=O)O)cc1 (stereo not drawn) [Ibuprofen, reference compound]",oedema rate (%),[2]; 100 mg/kg orally,54%
"CC(C(=O)O)c1ccc2c(c1)C(=O)CC(C)(C)O2 (stereo not drawn) [Compound 4, 2-(2,2-dimethyl-4-chromanon-6-yl)propionic acid]",gastric irritation rate(%),[3]; 50 mg/kg orally,8%
same,oedema rate (%),[2]; 50 mg/kg orally,48%
same,mortality at 72 h,"Acute toxicity; ip, 200 mg/kg i.p.",0%
same,mortality at 72 h,"Acute toxicity; po, 300 mg/kg p.o.",0%
"O=C(O)Cc1ccc2c(c1)C(=O)CCO2 [Compound 1, (4-chromanon-6-yl) acetic acid]",analgesic effect (%),dd mice; 50 mg/kg orally,15%
same,analgesic effect (%),dd mice; 100 mg/kg orally,30%
same,analgesic effect (%),male dd mice; 50 mg/kg orally,31%
same,analgesic effect (%),male dd mice; 100 mg/kg orally,45%
